Measurements reported in ChEMBL document CHEMBL2380231, “X-ray crystal structure of ERK5 (MAPK7) in complex with a specific inhibitor” (J Med Chem, 2013).
Calls of active or inactive are those of the source. The rule behind the calls is not given here.

Experiments:
Type in all cases: cell-based
[1] = target: T1, Mitogen-activated protein kinase 7 (Homo sapiens, UniProt Q13164); assay: Inhibition of ERK5 autophosphorylation in sorbitol-stimulated human HeLa cells at 0.04 to 5 uM incubated for 1 hr prior to sorbitol stimulation measured after 30 mins by Western blot analysis
Target sequence in this assay (Q13164 2-816 limits assumed): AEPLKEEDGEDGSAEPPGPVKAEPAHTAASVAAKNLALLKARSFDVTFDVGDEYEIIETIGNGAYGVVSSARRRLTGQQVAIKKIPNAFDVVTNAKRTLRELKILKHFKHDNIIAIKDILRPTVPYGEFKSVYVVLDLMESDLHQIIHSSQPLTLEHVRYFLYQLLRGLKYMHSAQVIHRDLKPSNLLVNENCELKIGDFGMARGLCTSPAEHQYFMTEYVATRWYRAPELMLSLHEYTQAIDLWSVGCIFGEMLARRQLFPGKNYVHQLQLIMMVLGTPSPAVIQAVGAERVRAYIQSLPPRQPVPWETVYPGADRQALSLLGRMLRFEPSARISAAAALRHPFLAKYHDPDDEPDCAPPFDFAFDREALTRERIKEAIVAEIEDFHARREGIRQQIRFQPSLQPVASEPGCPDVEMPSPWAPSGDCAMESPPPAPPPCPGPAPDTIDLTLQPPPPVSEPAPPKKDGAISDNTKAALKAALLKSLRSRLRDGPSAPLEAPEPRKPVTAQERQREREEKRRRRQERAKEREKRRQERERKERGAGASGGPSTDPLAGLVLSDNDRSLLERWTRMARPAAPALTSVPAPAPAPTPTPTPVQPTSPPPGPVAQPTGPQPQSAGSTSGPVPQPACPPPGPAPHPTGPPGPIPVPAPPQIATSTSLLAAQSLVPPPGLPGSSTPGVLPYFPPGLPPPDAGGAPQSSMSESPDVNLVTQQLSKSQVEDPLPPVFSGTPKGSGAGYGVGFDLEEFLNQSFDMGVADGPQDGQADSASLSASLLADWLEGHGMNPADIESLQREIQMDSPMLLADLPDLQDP

[2] = target: T2, Mitogen-activated protein kinase; ERK1/ERK2 (Homo sapiens) (UniProt P27361+P28482); assay: Inhibition of total ERK1/ERK2 in sorbitol-stimulated human HeLa cells at 0.04 to 5 uM incubated for 1 hr prior to sorbitol stimulation measured after 30 mins by Western blot analysis
[3] = target: T2, Mitogen-activated protein kinase; ERK1/ERK2 (Homo sapiens); assay: Inhibition of ERK1/ERK2 phosphorylation in sorbitol-stimulated human HeLa cells at 0.04 to 5 uM incubated for 1 hr prior to sorbitol stimulation measured after 30 mins by Western blot analysis
[4] = target: T1, Mitogen-activated protein kinase 7; assay: Inhibition of GST-tagged full length human ERK5 transfected in HEK293 cells assessed as inhibition of AP1 transcriptional activity after 24 hrs by dual luciferase reporter gene assay
Target sequence in this assay (Q13164 whole entry): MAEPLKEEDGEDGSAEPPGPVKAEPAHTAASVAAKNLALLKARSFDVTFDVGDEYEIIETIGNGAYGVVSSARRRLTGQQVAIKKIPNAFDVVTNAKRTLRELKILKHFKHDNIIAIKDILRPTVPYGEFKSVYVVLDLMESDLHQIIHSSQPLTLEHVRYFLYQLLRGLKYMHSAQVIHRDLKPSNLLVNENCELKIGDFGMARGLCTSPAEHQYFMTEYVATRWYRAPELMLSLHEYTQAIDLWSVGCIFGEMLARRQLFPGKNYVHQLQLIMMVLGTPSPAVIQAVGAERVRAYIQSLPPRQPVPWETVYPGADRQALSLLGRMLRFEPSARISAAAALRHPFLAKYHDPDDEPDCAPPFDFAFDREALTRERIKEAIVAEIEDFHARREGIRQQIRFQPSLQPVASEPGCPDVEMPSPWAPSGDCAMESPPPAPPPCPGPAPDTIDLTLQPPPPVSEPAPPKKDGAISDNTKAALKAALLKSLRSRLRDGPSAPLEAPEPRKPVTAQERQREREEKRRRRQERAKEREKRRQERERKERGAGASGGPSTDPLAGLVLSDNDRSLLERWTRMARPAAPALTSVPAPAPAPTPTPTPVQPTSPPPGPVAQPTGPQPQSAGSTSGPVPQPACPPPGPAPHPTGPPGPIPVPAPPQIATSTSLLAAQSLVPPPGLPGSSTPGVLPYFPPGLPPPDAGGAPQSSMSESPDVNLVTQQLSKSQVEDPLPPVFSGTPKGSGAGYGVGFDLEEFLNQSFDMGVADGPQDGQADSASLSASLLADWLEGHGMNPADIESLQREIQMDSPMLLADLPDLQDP

T2 sequence (P27361 whole entry, looked up): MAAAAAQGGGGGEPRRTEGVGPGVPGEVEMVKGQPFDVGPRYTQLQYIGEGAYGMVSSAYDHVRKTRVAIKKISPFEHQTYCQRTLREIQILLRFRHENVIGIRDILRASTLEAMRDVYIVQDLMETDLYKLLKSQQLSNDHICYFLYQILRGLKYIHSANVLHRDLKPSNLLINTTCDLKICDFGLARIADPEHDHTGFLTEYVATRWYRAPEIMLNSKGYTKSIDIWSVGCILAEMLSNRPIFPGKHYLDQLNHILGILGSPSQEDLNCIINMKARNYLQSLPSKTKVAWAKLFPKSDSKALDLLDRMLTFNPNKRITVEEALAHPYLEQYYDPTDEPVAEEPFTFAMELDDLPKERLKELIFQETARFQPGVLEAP
T2 sequence (P28482 whole entry, looked up): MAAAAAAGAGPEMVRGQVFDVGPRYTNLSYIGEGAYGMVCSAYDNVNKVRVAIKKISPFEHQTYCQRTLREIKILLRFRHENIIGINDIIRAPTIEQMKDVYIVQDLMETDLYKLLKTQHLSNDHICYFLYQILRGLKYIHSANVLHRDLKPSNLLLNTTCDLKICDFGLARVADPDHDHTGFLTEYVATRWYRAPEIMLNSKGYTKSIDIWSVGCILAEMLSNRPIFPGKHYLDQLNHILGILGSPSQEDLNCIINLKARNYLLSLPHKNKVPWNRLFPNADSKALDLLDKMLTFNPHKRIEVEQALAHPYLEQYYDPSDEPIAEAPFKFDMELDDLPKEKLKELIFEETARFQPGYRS

Compound | inhibition [1] | inhibition [2] | inhibition [3] | EC50 [4] [µM]
CCOc1cc(C(=O)N2CCC(N3CCN(C)CC3)CC2)ccc1Nc1ncc2c(n1)N(C1CCCC1)c1ccccc1C(=O)N2C | Active | inactive | inactive | 
COc1cc(C(=O)N2CCC(N3CCN(C)CC3)CC2)ccc1Nc1ncc2c(n1)N1CCc3cccc(c31)C(=O)N2C |  |  |  | > 30
